Columns and labels:
Assay type in all cases: cell-based
S. Sanguis (ATCC 10556) = test: Determination of the minimum bactericidal concentration (MBC)
Method: (§1) A 20 mg/mL compound stock solution in BHI medium is prepared. In a 96-well plate, the compound solution is diluted serially (the concentration is halved at each step) to obtain the following final concentrations after addition of the bacteria suspension: 10 mg/mL; 5 mg/mL; 2.5 mg/mL; 1.25 mg/mL; 0.625 mg/mL; 0.31 mg/mL; 0.15 mg/mL; 0.08 mg/mL; 0.04 mg/mL; 0.02 mg/mL. Wells containing a mixture of penicillin and streptomycin antibiotics are used as a positive control. Compound-free medium is used as a growth control. A volume of bacterial suspension equal to 0.5*10^6 bacteria/mL is added to each well containing the compound and the controls. The dish is incubated at 37° C. for 24 hours. The lowest compound concentration at which no turbidity of the culture medium is evident is defined as MIC. For the calculation of MBC, aliquots equal to 50 μL are taken from the wells showing evident no turbidity of the medium and are plated on BHI agar plates for 48 hours. […] Bacterial suspensions taken from the positive control (growth medium only) and the negative control (growth medium with Ampicilin 100 μg/mL) are also seeded.
(§2) The compounds according to Examples 1, 3, 5, 6, and 7 were tested on bacterial strains different from S. mutans with the same methods described above, obtaining the MIC and MBC values reported in Table 2.

S. Mitis (ATCC 49456) = test: as above
Method: as §1, §2

S. Aureus (ATCC 25923) = test: as above
Method: as §1, §2

E. coli (ATCC25922) = test: as above
Method: as §1, §2

S. mutans (ATCC 25175) [1] = test: as above; details: Streptococcus mutans, ATCC25175; against S. Mutans
Method: as §1
(§3) In order to test the antibacterial properties of the compounds prepared in Examples 1-8, on colonies of S. mutans (ATCC 25175), a bacterium commonly found in the human oral cavity, a test was set up to determine the minimum inhibitory concentration (MIC) and the minimum bactericidal concentration (MBC) according to the “Determination of minimum inhibitory concentration (MIC)” methods and “Determination of minimum bactericidal concentration (MBC)” described above.

S. mutans (ATCC 25175) [2] = test: Determination of the minimum inhibitory concentration (MIC); details: Streptococcus mutans, ATCC25175; for MIC: against S. Mutans
Method: A colony of bacterium taken from agar plate is inoculated in Brain Hearth Infusion medium (BHI) and grown overnight at 37° C. The next day, the bacteria are diluted in fresh medium containing the phenol red indicator, up to a density of 10^6 bacteria/mL.
A stock solution of 2 mg/mL of compound is prepared in BHI medium containing phenol red.
In a 96-well plate, the compound stock solution is diluted serially (the concentration is halved at each step) to obtain the following final concentrations after addition of the bacteria suspension: 1 mg/mL; 0.5 mg/mL; 0.25 mg/mL; 0.125 mg/mL; 0.065 mg/mL; 0.032 mg/mL; 0.016 mg/mL; 0.008 mg/mL; 0.004 mg/mL; 0.002 mg/mL; 0.001 mg/mL. A compound-free medium is used as a growth control. A volume of bacterial suspension equal to 0.5*10^6 bacteria/mL is added to each well containing the compound and the control. The dish is incubated at 37° C. for 24 hours. Bacterial growth in each well is detected by the phenol red, which turns from red to yellow following acidification of the medium induced by bacterial metabolism. The lowest concentration of the compound causing no evident color change corresponds to the MIC.
as §3

bacteria grown on agar = test: Determination of bacterial inhibition - agar diffusion test of primer formulations; details: for zone of inhibition at 5 % strength: 5% by weight of compound; for zone of inhibition at 10 % strength: 10% by weight of compound
Excerpt: A test adapted from a commonly used method for determining the sensitivity of a bacterial strain to antibiotics in solution, known as Kirby-Bauer antibiotic testing or disc diffusion antibiotic sensitivity testing was used (Brown D F, Kothari D (1975), “Comparison of antibiotic discs from different sources”, J. Clin. Pathol. 28 (10): 779-83. Doi: 10.1136 /jcp.28.10.779). The test performed involves the use of discs imbued with a known concentration of the substance under examination that are placed on a layer of bacteria grown on agar. The diffusion of the bactericidal molecule from the disk into the agar causes the inhibition of bacterial growth in the area surrounding the disk itself where the molecule has spread with the formation of what are called zones of growth inhibition. The diameter of these inhibition zones (transparent circular regions in comparison to the bacterial film) is proportional to the antibacterial efficacy of the molecule to its concentration and to its diffusion ability in the medium.
The bactericidal properties of the compounds according to Examples 1, 3, 5, 6 and 7 were tested in various primer-type preparations, using the method “Bacterial inhibition determination-Agar diffusion test” described above. The disk soaked in the tested primer formulation without addition of compounds according to Examples 1, 3, 5, 6 and 7 was used as a negative reference.
For the tests, the following primer-type formulations were used, identified by the following codes: […]

[3] = primer L1B, 1% by weight of compound
[4] = primer L3, 1% by weight of compound
[5] = primer PaA, 1% by weight of compound

| SMILES | MCB (S. Sanguis (ATCC 10556)) [mg/mL] | MCB (S. Mitis (ATCC 49456)) [mg/mL] | MCB (S. Aureus (ATCC 25923)) [mg/mL] | MCB (E. coli (ATCC25922)) [mg/mL] | MBC (S. mutans (ATCC 25175) [1]) [µg/mL] | MIC (S. mutans (ATCC 25175) [2]) [µg/mL] | zone of inhibition at 1 % strength (bacteria grown on agar; primer L1A, 1% by weight of compound) [mm] | zone of inhibition at 5 % strength (bacteria grown on agar; primer L1A) [mm] | zone of inhibition at 10 % strength (bacteria grown on agar; primer L1A) [mm] | zone of inhibition at 1 % strength (bacteria grown on agar; [3]) [mm] | zone of inhibition at 5 % strength (bacteria grown on agar; primer L1B) [mm] | zone of inhibition at 10 % strength (bacteria grown on agar; primer L1B) [mm] | zone of inhibition at 1 % strength (bacteria grown on agar; primer L1C, 1% by weight of compound) [mm] | zone of inhibition at 5 % strength (bacteria grown on agar; primer L1C) [mm] | zone of inhibition at 10 % strength (bacteria grown on agar; primer L1C) [mm] | zone of inhibition at 1 % strength (bacteria grown on agar; [4]) [mm] | zone of inhibition at 1 % strength (bacteria grown on agar; [5]) [mm] | MBC (S. mutans (ATCC 25175) [2]; against the analyzed bacteria strains) [µg/mL] |
| --- | --- | --- | --- | --- | --- | --- | --- | --- | --- | --- | --- | --- | --- | --- | --- | --- | --- | --- |
| C=C(C)C(=O)OCC[N+](C)(C)CCCCCCCCCCCC[N+](C)(C)CCOC(=O)C(=C)C.[Br-].[Br-] [Example 1] | 0.62 | 0.62 | 0.156 | 0.625 | 300 | 150 | 15 | 20 | 25 | 5 | 15 | 19 | 10 | 15 | 20 |  |  |  |
| C=C(C)C(=O)OCC[N+](CC)(CC)CCCCCCCCCCCC[N+](CC)(CC)CCOC(=O)C(=C)C.[Br-].[Br-] [Example 5] | 0.039 | 0.039 | 0.039 | 0.156 | 20 | 10 to 20 |  |  |  | 14 |  |  |  |  |  | 13 | 12 |  |
| C=C(C)C(=O)Nc1ccc([N+](C)(C)CCCCCCCCCCCC[N+](C)(C)c2ccc(NC(=O)C(C)=O)cc2)cc1.[Br-].[Br-] [Example 6] | 0.005 | 0.01 | 0.01 | 0.002 | 10 | 5 |  |  |  | 14 |  |  |  |  |  | 15 | 15 | 5 to 10 |
| C=C(C)C(=O)NCc1cc[n+](CCCCCCCCCCCC[n+]2ccc(CNC(=O)C(=C)C)cc2)cc1.[Br-].[Br-] [Example 7] | 0.02 | 0.02 | 0.005 | 0.0025 | 2.5 | 2.5 |  |  |  | 17 |  |  |  |  |  | 14 | 13 |  |
